Results published in US20250188082A1, “Use of Hypoxanthine Compound In Preparation of Drug For Treating Pulmonary Fibrosis” (Sichuan Yiasuo Pharmaceutical Technology Co., Ltd., priority 2022, published 2025).

Legend:
Type in all cases: in vivo, C57BL/6 mice
[1] = tested on: novel coronavirus-induced pulmonary fibrosis model (COVID-19 novel coronavirus strains); assay: Novel coronavirus-induced pulmonary fibrosis model; settings: 120 mg/kg/d intragastric, 14 days; for Ashcroft scores: novel coronavirus + bleomycin, lung tissue HE; for IL-1β / NF-κB / TNF-α / IL-6: serum, COVID-19 novel coronavirus + bleomycin, from two weeks after model
Source text: Experimental method: an in-vivo novel coronavirus-induced pulmonary fibrosis model was established: C57BL/6 mice (with weights being 22-25 g) were randomly and evenly divided into a plurality of groups, including blank control group, model group, Nintedanib positive control group, hypoxanthine analogue A group, hypoxanthine analogue B group, hypoxanthine analogue C group, compound 1 group, a compound 2 group . . . compound 12 group, with 9 mice in each group. On Day 1, the mice in blank control group were instilled with normal saline nasally, and the mice in other groups were all infected with COVID-19 novel coronavirus strains (30 μL) through nasal instillation. On Day 2, the mice received 5 mg/kg bleomycin through tracheas to induce their pulmonary fibrosis. After the model was established for two weeks, the mice in each group were intragastrically administrated for intervention for consecutive 14 days; the mice in blank control group and model group intragastrically received the same dosage of normal saline as those in drug groups; the mice in Nintedanib positive control group received Nintedanib (120 mg/kg); the mice in hypoxanthine analogue A group, hypoxanthine analogue B group and hypoxanthine analogue C group respectively received hypoxanthine analogue A (120 mg/kg/d), hypoxanthine analogue B (120 mg/kg/d) and hypoxanthine analogue C (120 mg/kg/d); and the mice in compound 1 group, compound 2 group . . . compound 12 group respectively received compound 1 (120 mg/kg/d), compound 2 (120 mg/kg/d) . . . compound 12 (120 mg/kg/d) prepared in example 1. After administration for consecutive 14 days, the mice were observed every day, and their weights and death conditions were recorded. After administration, blood was taken from eyeballs for immediately detecting the expression levels of NF-κB, TNF-α, IL-1 and IL-6 in serum, and lung tissues were taken for HE detection and Ashcroft scoring.

[2] = tested on: bleomycin-induced pulmonary fibrosis model; assay: Advanced pulmonary fibrosis: bleomycin-induced model, dosing from three weeks after modelling; settings: for Leucocyte / Lymphocyte / Neutrophil / Ashcroft scores: advanced pulmonary fibrosis, 120 mg/kg/d intragastric, 14 days, from three weeks after model; for Leucocyte / Lymphocyte / Neutrophil: blood, Day 15, twice every day; for Ashcroft scores: lung tissue HE staining; for inhibition (anti-inflammatory) effect on leucocytes, neutrophils and lymphocytes in blood: mice with advanced pulmonary fibrosis, result in words
[3] = tested on: Streptococcus pneumoniae-induced pulmonary fibrosis model; assay: Streptococcus pneumoniae-induced pulmonary fibrosis model; settings: for Leucocyte / Lymphocyte / Neutrophil / Ashcroft scores: Streptococcus pneumoniae + bleomycin, 120 mg/kg/d intragastric, 14 days; for Leucocyte / Lymphocyte / Neutrophil: blood, Day 15, 3 times every day, from one week after model; for Ashcroft scores: lung tissue HE staining; for inhibition (anti-inflammatory) effect on leucocytes, neutrophils and lymphocytes in blood: mice with Streptococcus pneumoniae-induced pulmonary fibrosis, result in words
[4] = tested on: mycoplasma-induced pulmonary fibrosis model (MPFH strain); assay: Mycoplasma-induced pulmonary fibrosis model; settings: 120 mg/kg/d intragastric, 14 days; for Leucocyte / Lymphocyte / Neutrophil: MPFH mycoplasma + bleomycin, once a day, from two weeks after model; for Ashcroft scores: mycoplasma + bleomycin, lung tissue HE
Source text: Experimental method: an in-vivo mycoplasma-induced pulmonary fibrosis model was established: C57BL/6 mice (with weights being 22-25 g) were randomly and evenly divided into a plurality of groups, including blank control group, model group, Nintedanib positive control group, hypoxanthine analogue A group, hypoxanthine analogue B group, hypoxanthine analogue C group, compound 1 group, compound 2 group . . . compound 12 group, with 9 mice in each group. Before a model was established, the mice were anesthetized with diethyl ether. In addition to that the mice in blank control group with instilled with 100 μL of normal saline nasally, the mice in other groups with slowly instilled with an equal volume of a MPFH strain solution (containing 1×10^7 mL^−1 MPFH strain) to the nasal cavity, for consecutive 3 days, and inhaled the MPFH strain solution into bronchi. After instillation with mycoplasmas through tracheas, the mice received 5 mg/kg bleomycin through tracheas to induce their pulmonary fibrosis. After the model was established for two weeks, the mice in each group were intragastrically administrated for intervention for consecutive 14 days; the mice in blank control group and model group intragastrically received an equal dosage of normal saline as those in drug groups; the mice in Nintedanib positive control group received Nintedanib (120 mg/kg); the mice in hypoxanthine analogue A group, hypoxanthine analogue B group and hypoxanthine analogue C group respectively received hypoxanthine analogue A (120 mg/kg/d), hypoxanthine analogue B (120 mg/kg/d) and hypoxanthine analogue C (120 mg/kg/d); and the mice in compound 1 group, compound 2 group . . . compound 12 group respectively received compound 1 (120 mg/kg/d), compound 2 (120 mg/kg/d) . . . compound 12 (120 mg/kg/d) prepared in example 1. The mice were administrated once a day to be treated for consecutive 14 days. The mice were observed every day, and their weights and death conditions were recorded. On the last day of administration, the mice were sacrificed; and blood was taken from eyeballs and kept at −80° C. for detecting blood routine indexes. Meanwhile, lungs were lavaged with normal saline and separated to collect lavage fluids for detecting counts and classes of leucocytes; and lung tissues were taken for HE straining and Ashcroft scoring on the extent of pulmonary fibrosis.

SMILES	Ashcroft scores [1]	IL-1β [1] [pg/mL]	NF-κB [1] [pg/mL]	TNF-α [1] [pg/mL]	Leucocyte [2]	Lymphocyte [2]	Neutrophil [2]	Ashcroft scores [2]	Leucocyte [3]	Lymphocyte [3]	Neutrophil [3]	Ashcroft scores [3]	Leucocyte [4]	Lymphocyte [4]	Neutrophil [4]	Ashcroft scores [4]	IL-6 [1] [pg/mL]	inhibition (anti-inflammatory) effect on leucocytes, neutrophils and lymphocytes in blood [2]	inhibition (anti-inflammatory) effect on leucocytes, neutrophils and lymphocytes in blood [3]	other results
CC(=O)Oc1ncnc2c1ncn2C(C)C [Compound 11]	1.31	37.2	26.7	69.0	4.22 10^9/L	5.57 10^9/L	1.39 10^9/L	1.07	6.29 10^9/L	6.21 10^9/L	1.81 10^9/L	1.28	6.70 10^9/L	73.25 10^9/L	22.47 10^9/L	1.50	–	–	–	–
CCC(=O)Oc1ncnc2c1ncn2C(C)C [Compound 12]	1.18	38.9	27.3	68.4	4.04 10^9/L	5.65 10^9/L	1.23 10^9/L	1.13	7.04 10^9/L	7.23 10^9/L	1.97 10^9/L	1.39	6.12 10^9/L	74.46 10^9/L	21.68 10^9/L	1.12	66.8	–	–	–
O=c1[nH]cnc2[nH]cnc12 [Hypoxanthine analogue A, reference compound]	6.13	489.0	731.3	400.5	66.48 10^9/L	71.65 10^9/L	67.48 10^9/L	5.88	155.12 10^9/L	90.75 10^9/L	89.99 10^9/L	6.12	116.79 10^9/L	567.15 10^9/L	234.53 10^9/L	6.64	554.5	obviously inferior	obviously inferior	–
CC(C)Oc1ncnc2c1ncn2C [Hypoxanthine analogue B, reference compound]	6.38	491.8	741.1	401.9	71.35 10^9/L	67.37 10^9/L	68.34 10^9/L	6.01	156.11 10^9/L	91.01 10^9/L	89.86 10^9/L	6.14	118.58 10^9/L	568.05 10^9/L	233.92 10^9/L	6.30	552.3	obviously inferior	obviously inferior	–
COc1ncnc2c1ncn2C(C)C [Hypoxanthine analogue C, reference compound]	–	–	–	–	–	–	–	–	–	–	–	–	–	–	–	–	–	obviously inferior	obviously inferior	Ashcroft scores ([1]; 120 mg/kg/day): 6.71; IL-1β ([1]; 120 mg/kg/day): 572.7 pg/mL; IL-6 ([1]; 120 mg/kg/day): 543.7 pg/mL; NF-κB ([1]; 120 mg/kg/day): 739.2 pg/mL; TNF-α ([1]; 120 mg/kg/day): 542.4 pg/mL; Leucocyte ([2]; 120 mg/kg/day): 72.55 10^9/L; Lymphocyte ([2]; 120 mg/kg/day): 70.88 10^9/L; Neutrophil ([2]; 120 mg/kg/day): 59.66 10^9/L; Ashcroft scores ([2]; 120 mg/kg/day): 6.06; Leucocyte ([3]; 120 mg/kg/day): 149.35 10^9/L; Lymphocyte ([3]; 120 mg/kg/day): 90.12 10^9/L; Neutrophil ([3]; 120 mg/kg/day): 82.11 10^9/L; Ashcroft scores ([3]; 120 mg/kg/day): 6.21; Leucocyte ([4]; 120 mg/kg/day): 120.98 10^9/L; Lymphocyte ([4]; 120 mg/kg/day): 571.34 10^9/L; Neutrophil ([4]; 120 mg/kg/day): 238.07 10^9/L; Ashcroft scores ([4]; 120 mg/kg/day): 6.41
COC(=O)c1ccc2c(c1)NC(=O)/C2=C(\Nc1ccc(N(C)C(=O)CN2CCN(C)CC2)cc1)c1ccccc1 [Nintedanib, reference compound]	6.04	561.2	732.7	539.8	46.09 10^9/L	50.03 10^9/L	40.99 10^9/L	4.13	98.31 10^9/L	87.43 10^9/L	78.94 10^9/L	4.55	122.15 10^9/L	565.69 10^9/L	232.24 10^9/L	5.45	523.7	obviously inferior	obviously inferior	–
